Assays:
[1] = tested on: yeast; assay: Corn mash fermentation with synthetic antioxidants, 24 hours at 33° C. then heat stress at 37° C. to 72 hours, ethanol by HPLC (Example 6); format: cell-based; conditions: for increase in ethanol content at 24 hour compared to control: before heat stress
From the text: (§1) Lutein (FloraGLO®): Lutein crystals were purified from marigolds and suspended in oil. Acerola extract (Fortium® A): Acerola fruit grown from Malpighia emarginata, water extract. Spearmint Extract (Neumentix®): Spearmint leaves grown from Mentha spicata L. (Kemin Industries, Inc. proprietary lines KI-MsEM0042, KI-MsEM0110), water extract. Aqueous Tea Extract (AssuriTEA® Green): Tea leaves grown from Camellia sinensis, water extract. Solvent Extracted Tea (Fortium® GT107): Tea leaves grown from Camellia sinensis and extracted with acetone and ethyl acetate, solvent extract. Rosemary Extract (Fortium® M): Rosemary leaves grown from Rosmarinus officinalis extracted with either acetone and TFE or ethanol. Mixed Tocopherols (Fortium® MT): Mixed tocopherols are extracted from vegetable oils with hexane, ethanol, and methanol. Lipid-Soluble Green Tea (GT-FORT): Tea leaves grown from Camellia sinensis and extracted with ethyl acetate, dichloromethane, and ethanol. Synthetic antioxidants: TBHQ (tert-butylhydroquinone) and BHT (butylated hydroxytoluene); tert-butlyhydroquinone was solubilized in propylene glycol and butylated hydroxytoluene was solubilized in ethanol. In alternative embodiments, the synthetic antioxidants are suspended in liquid or solubilized in liquid, including but not limited to water and organic solvents or combinations thereof.
Dry yeast was added to corn mash containing urea, protease, phytase, and glucoamylase. tert-Butylhydroquinone (0.0001, 0.001, or 0.01 mg/L) and butylated hydroxytoluene (0.0001, 0.001, or 0.01 mg/L were added to the corn mash. Corn mash containing no antioxidants was included in the experiment as a Control. The corn mash was fermented in a temperature-controlled incubator shaker for 24 hours at 33° C. Following 24 hours, the yeast in the corn mash were subjected to heat stress by increasing the temperature to 37° C. and the corn mash fermented for another 48 hours for a total fermentation time of 72 hours. Ethanol levels were measured by HPLC.

[2] = tested on: yeast; assay: Corn mash fermentation, 48 hours, heat stress at 38° C. after 24 hours, ethanol by HPLC (Example 1); format: cell-based; conditions: 48 hours total, heat stress 38° C. for last 24 hours
From the text: as §1
Dry yeast was added to corn mash containing urea, protease, phytase, and glucoamylase. Lutein, a fat-soluble antioxidant, was added to the mash at 200, 1,000, or 2,000 mg/L. Dried aqueous tea extract or spearmint extract containing antioxidants were added to the corn mash at 100, 1,000, or 5,000 mg/L. Corn mash containing no added antioxidants was included in the experiment as a control group (Control). The corn mash was fermented in a temperature-controlled incubator shaker for 24 hours at 33° C. Following 24 hours, the yeast in the corn mash were subjected to heat stress by increasing the temperature to 38° C. and the corn mash fermented for another 24 hours for a total fermentation time of 48 hours. Ethanol levels were measured by HPLC.

## Cc1cc(C(C)(C)C)c(O)c(C(C)(C)C)c1 [butylated hydroxytoluene]
[1]; 72 hours, following heat stress 37° C., 0.0001, 0.001 or 0.01 mg/L
  change of ethanol content of corn mash through 72 hours compared to control: slightly decreased

## CC1=C[C@H](O)CC(C)(C)[C@H]1/C=C/C(C)=C/C=C/C(C)=C/C=C/C=C(C)/C=C/C=C(C)/C=C/C1=C(C)C[C@@H](O)CC1(C)C [lutein, Lutein]
[2]; 200 mg/L
  increase in ethanol content of corn mash compared to Control: 4%
[2]; 1,000 mg/L
  increase in ethanol content of corn mash compared to Control: 7%
[2]; 2,000 mg/L
  increase in ethanol content of corn mash compared to Control: 10%

## CC(C)(C)c1cc(O)ccc1O [tert-Butylhydroquinone, tert-butylhydroquinone]
[1]; 0.0001 mg/L, first 24 hours at 33° C.
  increase in ethanol content at 24 hour compared to control: up to 0.4%
[1]; 0.01 mg/L, first 24 hours at 33° C.
  increase in ethanol content at 24 hour compared to control: up to 1.8%
[1]; 72 hours, following heat stress 37° C., highest increase among 0.0001, 0.001 or 0.01 mg/L
  increase in ethanol content at 72 hour compared to control: ≤ 2.8%
[1]; first 24 hours at 33° C., FIG. 17, 0.0001, 0.001 or 0.01 mg/L
  change of ethanol content of corn mash over the first 24 hours compared to control: decreased
